This note sets out measurements from ChEMBL document CHEMBL1156805, “Development of (S)-N6-(2-(4-(isoquinolin-1-yl)piperazin-1-yl)ethyl)-N6-propyl-4,5,6,7-tetrahydrobenzo[d]-thiazole-2,6-diamine and its analogue as a D3 receptor preferring agonist: potent in vivo activity in Parkinson's disease animal models” (J Med Chem, 2010).

The target of assay [1] is D(2) dopamine receptor (Rattus norvegicus, UniProt P61169). The assay is described as follows: biochemical.
For assay [2], the system named is Radical scavenging activity.
Description: Antioxidant activity assessed as DPPH radical scavenging activity
Assay [3] deals with T1, D(2) dopamine receptor (Homo sapiens, UniProt P14416).
T1 sequence (P14416 whole entry): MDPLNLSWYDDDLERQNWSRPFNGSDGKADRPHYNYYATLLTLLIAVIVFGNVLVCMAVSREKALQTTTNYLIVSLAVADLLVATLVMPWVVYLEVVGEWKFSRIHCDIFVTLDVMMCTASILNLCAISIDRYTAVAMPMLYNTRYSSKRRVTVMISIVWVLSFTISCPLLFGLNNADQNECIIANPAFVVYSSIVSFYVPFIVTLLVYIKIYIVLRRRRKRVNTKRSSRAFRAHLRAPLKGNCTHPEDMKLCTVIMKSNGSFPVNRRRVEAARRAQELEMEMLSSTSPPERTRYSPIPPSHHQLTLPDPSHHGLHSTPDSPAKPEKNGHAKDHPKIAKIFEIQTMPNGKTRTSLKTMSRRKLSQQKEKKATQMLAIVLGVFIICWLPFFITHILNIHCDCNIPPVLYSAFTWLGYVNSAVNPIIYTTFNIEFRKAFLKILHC
For assay [4], the target named is T2, D(3) dopamine receptor (Rattus norvegicus, UniProt P19020). The assay is described as follows: biochemical.
T2 sequence (P19020 whole entry): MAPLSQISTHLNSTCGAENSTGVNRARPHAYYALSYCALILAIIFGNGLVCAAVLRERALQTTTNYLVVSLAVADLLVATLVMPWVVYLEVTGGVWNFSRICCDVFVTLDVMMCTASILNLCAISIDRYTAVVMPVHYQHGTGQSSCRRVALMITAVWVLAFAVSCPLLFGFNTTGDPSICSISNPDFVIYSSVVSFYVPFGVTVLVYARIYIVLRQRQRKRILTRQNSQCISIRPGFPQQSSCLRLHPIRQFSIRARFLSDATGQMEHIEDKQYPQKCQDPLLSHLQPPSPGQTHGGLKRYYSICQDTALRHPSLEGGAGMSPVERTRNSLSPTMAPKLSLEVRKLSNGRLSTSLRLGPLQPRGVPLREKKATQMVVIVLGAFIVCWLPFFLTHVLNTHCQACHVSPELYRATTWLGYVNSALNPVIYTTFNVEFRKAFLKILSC
Assay [5] addresses T3, D(3) dopamine receptor (Homo sapiens, UniProt P35462). The assay can be described thus: biochemical.
The target of assay [6] is T3, D(3) dopamine receptor.
Assay [7] deals with T1, D(2) dopamine receptor. The assay can be described thus: biochemical.
For assay [8], the target named is T1, D(2) dopamine receptor. The assay is described as follows: Agonist activity at human dopamine D2L receptor expressed in CHO cells assessed as stimulation of [35S]GTPgamma binding relative to 1 mM dopamine. Type of assay: functional, cell-based.
The target of assay [9] is T2, D(3) dopamine receptor.

Sequence of D(2) dopamine receptor (Rattus norvegicus, UniProt P61169) (P61169 whole entry): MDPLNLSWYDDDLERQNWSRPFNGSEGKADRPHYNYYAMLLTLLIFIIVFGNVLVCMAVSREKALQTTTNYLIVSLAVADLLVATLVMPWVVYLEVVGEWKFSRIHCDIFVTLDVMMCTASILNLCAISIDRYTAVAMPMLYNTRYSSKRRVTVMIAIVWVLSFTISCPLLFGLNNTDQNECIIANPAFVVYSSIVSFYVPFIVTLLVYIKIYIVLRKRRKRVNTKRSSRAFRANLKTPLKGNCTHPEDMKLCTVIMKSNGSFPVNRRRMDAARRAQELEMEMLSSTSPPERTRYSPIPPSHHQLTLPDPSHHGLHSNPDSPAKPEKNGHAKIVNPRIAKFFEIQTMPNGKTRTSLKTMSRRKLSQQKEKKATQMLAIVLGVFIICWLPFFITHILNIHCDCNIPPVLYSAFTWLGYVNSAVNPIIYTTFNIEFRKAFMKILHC
T3 sequence (P35462 whole entry): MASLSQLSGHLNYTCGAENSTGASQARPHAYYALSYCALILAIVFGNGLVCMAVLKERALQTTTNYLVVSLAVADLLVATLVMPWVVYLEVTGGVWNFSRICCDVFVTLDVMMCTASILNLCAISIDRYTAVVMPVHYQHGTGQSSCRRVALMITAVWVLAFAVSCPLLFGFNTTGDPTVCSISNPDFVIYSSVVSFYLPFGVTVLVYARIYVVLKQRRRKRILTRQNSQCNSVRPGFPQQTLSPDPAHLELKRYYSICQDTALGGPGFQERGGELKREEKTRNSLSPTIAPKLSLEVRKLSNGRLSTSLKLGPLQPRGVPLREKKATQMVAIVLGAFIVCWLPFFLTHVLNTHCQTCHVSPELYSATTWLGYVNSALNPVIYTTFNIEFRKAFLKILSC

Take `CCCN(CCN1CCN(c2ccc3ccccc3c2)CC1)C1CCc2ccc(O)cc2C1` (stereo not given): the affinity on D(2) dopamine receptor [1], expressed as Ki, was 8.85 nM.

In assay [2], `CCCN(CCN1CCN(c2nccc3ccccc23)CC1)[C@H]1CCc2nc(N)sc2C1` registered an IC50 of 45700 nM. Also, the results for the EC50 on D(2) dopamine receptor [3] and at D(3) dopamine receptor [5] were 116 nM and 0.52 nM, respectively. Also, the Ki at D(2) dopamine receptor [1] came out at 269 nM; at D(3) dopamine receptor [4] it was 2.23 nM.

In the case of `CCCN(CCN1CCN(c2ccc(-c3ccccc3)cc2)CC1)[C@H]1CCc2nc(N)sc2C1`, the EC50 at D(2) dopamine receptor [3] was 19.9 nM; at D(3) dopamine receptor [6], 0.085 nM.

For `CCCN(CCN1CCN(c2ccnc3ccccc23)CC1)[C@H]1CCc2nc(N)sc2C1`, the EC50 on D(2) dopamine receptor [7] came to 77.2 nM; at D(3) dopamine receptor [5], 0.493 nM. In addition, the Emax on D(2) dopamine receptor [8] came out at 118%. Further, the Ki at D(2) dopamine receptor [1] was found to be 109 nM.

Take `CCCN(CCN1CCN(C(=O)c2cc3ccccc3[nH]2)CC1)[C@H]1CCc2c(O)cccc2C1`: on D(3) dopamine receptor [9], the Ki worked out at 0.57 nM. This lies in the sub-nanomolar range.

As to `CCCN(CCN1CCN(c2cccc3ncccc23)CC1)[C@H]1CCc2nc(N)sc2C1`, in [2], the IC50 worked out at 39700 nM. Also, the EC50 on D(2) dopamine receptor [7] came to 13.5 nM; on D(3) dopamine receptor [5], 0.528 nM. Moreover, the Emax on D(2) dopamine receptor [8] was determined as 104%. This compound displayed a Ki on D(2) dopamine receptor [1] of 57.7 nM.

In turn, `CCCN(CCN1CCN(c2cccc3ccccc23)CC1)C1CCc2ccc(O)cc2C1` (stereo not given) displayed an inhibition constant Ki at D(2) dopamine receptor [1] of 13.5 nM.

For `CCCN(CCN1CCN(c2ccc(-c3ccncc3)cc2)CC1)[C@H]1CCc2nc(N)sc2C1`, the Ki at D(2) dopamine receptor [1] worked out at 270 nM. This Ki is about 20-fold higher than that of the compound before.

Turning to `CCCN(CCC)CCc1cccc2c1CC(=O)N2` [ROPINIROLE], the response at D(2) dopamine receptor [7] was half-maximal at 304 nM (EC50). This lies in the sub-micromolar range.

Regarding `CCCN(CCN1CCN(c2nccc3ccccc23)CC1)C1CCc2ccc(O)cc2C1` (stereo not given), the inhibitory constant (Ki) at D(2) dopamine receptor [1] turned out to be 21.7 nM.

In the case of `CCCN(CCN1CCN(c2cccc3ncccc23)CC1)C1CCc2ccc(O)cc2C1` (stereo not given), at D(2) dopamine receptor [1], the affinity corresponds to a Ki of 5.22 nM.

With `CCCN(CCN1CCN(c2ccnc3ccccc23)CC1)C1CCc2ccc(O)cc2C1` (stereo not given), the inhibitory constant (Ki) at D(2) dopamine receptor [1] was 7.08 nM; at D(3) dopamine receptor [4], 2.65 nM.
